Publication PMC3707110 (Nature methods, 2012)
Non-standard residues stand in square brackets, D forms with d. Residues, ends and D or L forms follow the SMILES beside them. *: point of attachment. Sta = CC(C)C[C@H](N)[C@@H](O)CC(=O)O; Isovaleryl = CC(C)CC(=O)*

Tests used:
[1] = tested on: peptidases in conditioned media from pancreatic ductal adenocarcinoma cells; assay type: biochemical, mouse; details: media pre-treated 30 minutes at room temperature with 1 μM E64, 1 μM 1,10-Phenanthroline or 400 nM pepstatin; pH 5.2; within 1200 minutes
[2] = tested on: Granzyme B; details: fluorescent substrate containing the sequence; previous studies; cited from earlier work

Molecule | effect on cleavage sites / cleavage signature of conditioned media [1] | catalytic efficiency (kcat/KM) [2]
c1cnc2c(c1)ccc1cccnc12 [1,10-phenanthroline] | majority of cleavage sites remained unchanged | –
CC(C)C[C@H](NC(=O)[C@H]1O[C@@H]1C(=O)O)C(=O)NCCCCN=C(N)N [E-64] | majority of cleavage sites remained unchanged | –
CC(C)CC(=O)N[C@H](C(=O)N[C@H](C(=O)N[C@@H](CC(C)C)[C@@H](O)CC(=O)N[C@@H](C)C(=O)N[C@@H](CC(C)C)[C@@H](O)CC(=O)O)C(C)C)C(C)C [pepstatin] (Isovaleryl-VV[Sta]A[Sta]-OH) | completely altered the cleavage signature | –
VVAD↓SSMES | – | 116,000 M^−1 s^−1
